≈ marks a conversion by molar mass, not a printed value. Each block holds one molecule with its values, some of them ahead of it.
Tests used:
SW480 [1] = test: Anticancer activity against human SW480 cells assessed as reduction in cell viability; assay type: functional, cell-based
DLD-1 [2] = test: Anticancer activity against human DLD-1 cells assessed as reduction in cell viability; assay type: functional, cell-based
HCT-116 [3] = test: Antiproliferative activity against human HCT-116 cells assessed as reduction in cell viability incubated for 48 hrs by MTT assay; assay type: functional, cell-based; details: time 48 hrs
[4] = Inhibition of APC/ASEF (unknown origin) protein protein interaction incubated for 2 hrs by fluorescence polarization analysis; design: species or system Homo sapiens
SW480 [5] = test: Antiproliferative activity against human SW480 cells assessed as reduction in cell proliferation incubated for 24 hrs by MTT assay; assay type: functional, cell-based; details: SW480, 24 h
HCT-116 [6] = test: Antiproliferative activity against human HCT-116 cells assessed as reduction in cell proliferation incubated for 24 hrs by MTT assay; assay type: functional, cell-based; details: HCT-116, 24 h
DLD-1 [7] = test: Anticancer activity against human DLD1 cells expressing APC mutant assessed as reduction in cell viability by dual-glo luciferase assay; assay type: functional, cell-based
HCT-116 [8] = test: Anticancer activity against human HCT-116 cells assessed as decrease in cell growth incubated for 72 hrs by tryphan blue staining based cell counter analysis; assay type: functional; details: HCT-116, 72 h
SW480 [9] = test: Anticancer activity against human SW480 cells assessed as decrease in cell growth incubated for 72 hrs by tryphan blue staining based cell counter analysis; assay type: functional; details: SW480, 72 h
SW480 [10] = test: Anticancer activity against human SW480 cells assessed as reduction in cell viability incubated for 24 hrs by MTT assay; assay type: functional, cell-based; details: SW480, 24 h
HCT-116 [11] = test: Anticancer activity against human HCT-116 cells assessed as reduction in cell viability incubated for 24 hrs by MTT assay; assay type: functional, cell-based; details: HCT-116, 24 h
SW480 [12] = test: Antiproliferative activity against human SW480 cells assessed as reduction in cell proliferation; assay type: functional, cell-based
DLD-1 [13] = test: Antiproliferative activity against human DLD-1 cells assessed as reduction in cell proliferation; assay type: functional, cell-based
SW480 [14] = test: Anticancer activity against human SW480 cells assessed as reduction in cell proliferation incubated for 72 hrs by; assay type: functional, cell-based
SW480 [15] = test: Antiproliferative activity against human SW480 cells assessed as inhibition of cell growth incubated for 48 hrs by MTS assay; assay type: functional, cell-based; details: SW480, 48 h
[16] = target: Ubiquitin carboxyl-terminal hydrolase 7 (Homo sapiens, UniProt Q93009); test: Inhibition of recombinant full length wild type human Flag-tagged USP7 expressed in human HEK293 cells using Ub-AMC as substrate by fluorometric assay
Ubiquitin carboxyl-terminal hydrolase 7, sequence (Q93009 whole entry): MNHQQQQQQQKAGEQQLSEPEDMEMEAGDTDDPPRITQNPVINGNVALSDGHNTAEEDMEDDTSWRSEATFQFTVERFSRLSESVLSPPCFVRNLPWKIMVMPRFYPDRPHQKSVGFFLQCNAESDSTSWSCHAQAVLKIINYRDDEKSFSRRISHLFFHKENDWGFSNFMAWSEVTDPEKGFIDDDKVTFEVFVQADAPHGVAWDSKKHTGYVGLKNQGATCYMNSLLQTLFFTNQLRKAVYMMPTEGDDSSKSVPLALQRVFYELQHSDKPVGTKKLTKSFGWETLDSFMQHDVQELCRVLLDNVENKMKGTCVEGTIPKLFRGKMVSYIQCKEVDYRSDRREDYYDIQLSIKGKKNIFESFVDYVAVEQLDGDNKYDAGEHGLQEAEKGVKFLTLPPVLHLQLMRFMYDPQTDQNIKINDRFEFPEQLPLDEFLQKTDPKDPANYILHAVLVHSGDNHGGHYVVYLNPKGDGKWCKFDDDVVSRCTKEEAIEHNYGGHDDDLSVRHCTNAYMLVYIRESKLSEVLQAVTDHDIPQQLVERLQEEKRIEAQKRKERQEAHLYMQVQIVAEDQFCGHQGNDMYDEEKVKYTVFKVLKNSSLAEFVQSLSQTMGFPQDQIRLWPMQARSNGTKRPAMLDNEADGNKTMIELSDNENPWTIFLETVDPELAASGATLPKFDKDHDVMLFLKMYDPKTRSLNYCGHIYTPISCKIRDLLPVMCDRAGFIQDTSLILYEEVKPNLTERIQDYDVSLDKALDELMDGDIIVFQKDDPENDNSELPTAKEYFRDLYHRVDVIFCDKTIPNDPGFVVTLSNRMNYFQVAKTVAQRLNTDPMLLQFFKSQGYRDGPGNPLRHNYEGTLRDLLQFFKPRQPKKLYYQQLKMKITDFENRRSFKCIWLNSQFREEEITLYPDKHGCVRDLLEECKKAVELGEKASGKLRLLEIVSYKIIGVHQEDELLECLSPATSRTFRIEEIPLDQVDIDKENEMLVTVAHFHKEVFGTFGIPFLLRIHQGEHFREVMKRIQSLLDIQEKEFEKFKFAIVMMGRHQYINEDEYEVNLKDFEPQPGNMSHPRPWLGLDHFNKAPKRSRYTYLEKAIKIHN

HCT-116 [17] = test: Antiproliferative activity against human HCT-116 cells assessed as reduction in cell viability; assay type: functional, cell-based
SW480 [18] = test: Antiproliferative activity against human SW480 cells assessed as reduction in cell viability; assay type: functional, cell-based

Structure (SMILES): S=C=NCCc1ccccc1 [PHENETHYLISOTHIOCYANATE]
IC50 (SW480 [1]): 35.6 µM
IC50 (DLD-1 [2]): 54.6 µM

Structure (SMILES): COc1cccc(C2=NN(c3ccc(C(=O)Nc4cc(C(F)(F)F)cc(C(F)(F)F)c4)cc3)C(c3ccc4c(ccn4C)c3)C2)c1 (stereo not given)
IC50 (HCT-116 [3]): 1.37 µM
IC50 [4]: 1.02 µM

Structure (SMILES): CC1(C)C=Cc2c(ccc(C(=O)/C=C/c3ccccc3)c2O)O1 [LONCHOCARPIN]
IC50 (SW480 [5]): 20 µM
IC50 (HCT-116 [6]): 20 µM

Structure (SMILES): COc1cc(C2Oc3cc([C@H]4Oc5cc(O)cc(O)c5C(=O)[C@@H]4O)ccc3OC2CO)ccc1O (stereo not given in full) [SILIBININ]
IC50 (HCT-116 [8]): 50 µM
IC50 (SW480 [9]): 50 µM

Structure (SMILES): CC1=C(CO)C(=O)O[C@@H]([C@@H](C)[C@H]2CC[C@H]3[C@@H]4C[C@H]5O[C@]56[C@@H](O)C=CC(=O)[C@]6(C)[C@H]4CC[C@]23C)C1 [WITHAFERIN A]
IC50 (SW480 [10]): 4.9 µM
IC50 (HCT-116 [11]): 3.7 µM

Structure (SMILES): C=C1C(=O)[C@]23C[C@H]1CCC2[C@@]1(C)C([C@@H](O)[C@@H]3O)[C@](C)(C(=O)O)CC[C@@H]1O (stereo not given in full)
IC50 (HCT-116 [8]): 4.07 µM

Structure (SMILES): C=C1C(=O)O[C@@H]2[C@H]3O[C@]3(C)CC/C=C(\C)CC[C@@H]12
IC50 [16]: 6.58 µM

Second part, the molecule after the results:

IC50 (DLD-1 [7]): 0.9 µM
Structure (SMILES): CCN(C(=O)C1CCN(S(=O)(=O)c2cc(Br)cc3c2N(C(C)=O)CC3)CC1)c1cccc(C)c1

IC50 (DLD-1 [2]): 0.018 µM
Structure (SMILES): NS(=O)(=O)c1ccc(NC(=S)N2CCN(C/C=C/c3ccccc3)CC2)cc1

IC50 (SW480 [12]): 3.8 µM
IC50 (DLD-1 [13]): 2.9 µM
Structure (SMILES): CC(=O)N(O)CCCCCNC(=O)CCC(=O)N(O)CCCCCNC(=O)CCC(=O)N(O)CCCCCN [DEFEROXAMINE]

IC50 (SW480 [14]): 45.6 mg/L (≈ 145 µM)
Structure (SMILES): CC(=O)O[C@@H]1C(=O)c2c(O)cc(O)cc2O[C@H]1c1ccccc1

IC50 (SW480 [15]): 16.8 µM
Structure (SMILES): C=C1C(=O)[C@@]23[C@H](O)C[C@@H]4C(C)(C)CC[C@H](O)[C@@]4(COC(C)=O)[C@@H]2CC[C@H]1[C@H]3O

IC50 (HCT-116 [17]): 75.5 µM
IC50 (SW480 [18]): 44.1 µM
Structure (SMILES): CC(C)=CCc1c(O)ccc(C(=O)/C=C/c2ccc(O)cc2)c1O [ISOBAVACHALCONE]

From ChEMBL document CHEMBL5226288, “A perspective on medicinal chemistry approaches towards adenomatous polyposis coli and Wnt signal based colorectal cancer inhibitors” (Eur J Med Chem, 2021)
